Test results reported in patent publication US20260265216A1, “NOVEL THIOREDOXIN REDUCTASE INHIBITORS” (GENEXPLAIN GMBH, priority 2021, published 2026).

Legend:
[1] = system: cancer cells; experiment: Cell growth assay, combination with BSO; format: cell-based; details: 5 μM 1d*HCl and 50 μM BSO
Experimental: Further, we tested whether the inhibition of GR by BSO will have additive effect with 1d*HCl. If 1d*HCl mechanism of action includes inhibition of GR, BSO will not have an additive effect. We used a range of concentrations of 1d*HCl and BSO in cell growth assays. […] Next, we tested whether the prevention of oxidative stress by NAC will affect the growth suppression by the combination of 1d*HCl and BSO. In the presence of NAC we observed the additive effect of 1d*HCl with 50 μM BSO only at twice higher dose of 1d*HCl-10 μM.

[2] = system: B16 melanoma; experiment: B16 melanoma mouse model; format: in vivo, C57BL/6 mice; details: 10 mg/kg i.p. every other day for 9 days, day 8 and day 9
Experimental: For the B16 melanoma mouse model, 6-weeks-old female C57BL/6 mice were injected subcutaneously with 1×10^6 B16 cells. When the tumors reached 80-120 mm^3, 10 mg/kg of 1d*HCl were administered intraperitoneally every other day for 9 days (days 1, 3, 5, 7, 9). Tumor volume was measured by caliper three times per week, and the volume was calculated based on the formula (in ml): L/10*W/10*W/10*0.44 (L-length, W=width of tumor). Mice were sacrificed when tumors reached 2 cm^3 or upon bleeding.
We tested the anti-tumor activity of 1d*HCl using allogenic model of B16 mice. We inoculated mice with B16 melanoma cells. When the tumors reached 100 mm^3, we treated them with i.p. injection of 1d*HCl, 10 mg/kg every other day for 9 days. […] The differences in tumor volume between untreated control mice and animals treated with 1d*HCl are all statistically significant. Thus, 1d*HCl has in vivo anti-tumor activity in this animal tumor model.

[3] = Growth suppression with selenium in culture medium; format: cell-based; details: selenium added to culture medium
Source text: To find out whether the inhibition of TrxR1 is the major mechanism of action of 1d*HCl, we addressed the question, whether stimulation of TrxR1 activity will decrease the growth suppression activity of 1d*HCl. Since TrxR is a selenium-containing enzyme and the concentration of selenium is rate-limiting for TrxR1, we added selenium to culture medium to test whether selenium will alleviate the growth suppression by 1d*HCl.

[4] = system: cancer cells grown in hypoxia; experiment: Growth suppression under hypoxia versus normoxia; format: cell-based; details: hypoxia vs normoxia
Experimental: Breast, colon, ovarian, cervical, liver and lung carcinoma cell lines were grown in DMEM supplemented with 10% FBS, and antibiotics were cultured at 37° C. and 5% CO2. Osteosarcoma, melanoma, lymphoma, neuroblastoma and leukemia cell lines were cultured in RPMI 1640 with 10% FBS and antibiotics. An oxygen concentration of 0.3% was obtained by flushing a sealed box containing the cells with premixed gas composed of 95% nitrogen (N2) and 5% CO2 (AGA AB, Sweden). To obtain an oxygen concentration of 0.05%, the cells were flushed with the premixed gas continuously throughout the experiment.
Hypoxic tumors are often the most aggressive and resistant to chemotherapy. Therefore, we tested how cells in hypoxia will respond to the treatment by 1d*HCl. It has been shown that 1d*HCl is even more efficient in hypoxia condition. […] Thus, the compounds of the present invention are of great interest for the treatment of hypoxic solid tumors.

[5] = system: recombinant purified GR; experiment: GR recombinant enzyme assay in vitro; format: biochemical
Experimental: TrxR1 enzyme was recombinantly produced with high Sec contents in a specific Release Factor 1-depleted E. coli strain and purified as previously described (Arnér E S J, Holmgren A, in Current Protocols in Toxicology, Maines M, Costa L, Reed D, Sassa S, Eds. (John Wiley & Sons, Inc., New York, 2000), pp. 7.4.1-7.4.14). TrxR1 and GSR (Sigma) recombinant enzyme assays were performed in a reaction buffer containing 50 mM Tris pH 7.5 with 2 mM EDTA and 0.1 mg/mL bovine serum albumin as described previously (Arnér E S J, Holmgren A, in Current Protocols in Toxicology, Maines M, Costa L, Reed D, Sassa S, Eds. (John Wiley & Sons, Inc., New York, 2000), pp. 7.4.1-7.4.14). Briefly, assays were performed in triplicate using 96-well plates, with activity inferred from absorbance changes using a Spectra Max plate reader. Results of recombinant enzyme assays were normalized to DMSO and to no enzyme controls.
We used recombinant purified TrxR1 and GR in an in vitro assay as described in methods section.

Cl.N#Cc1c(-c2cccnc2)[n+]([O-])c2cc(F)c(N3CCOCC3)cc2[n+]1[O-] [Compound 1d*HCl, 6-Fluoro-7-(morpholin-4-yl)-3-(pyridin-3-yl)quinoxaline-2-carbonitrile-1,4-dioxide hydrochloride]
effect of combination with BSO on cell growth [1]: have an additive effect and completely eradicated cancer cells
tumor volume compared to vehicle-treated mice [2]: lower volume of tumors
growth suppression in the presence of selenium [3]: less efficient in the presence of selenium
IC50 in hypoxia lower than that in normoxia [4]: 2.3 fold
inhibition of GR activity [5]: did not inhibit GR activity
